System: MC38 tumors
Assay: MC38 tumor growth and survival, oral L-arginine with or without αPD-L1
Format: in vivo, C57BL/6 WT mice
Settings: s.c. MC38; L-arginine 2 g/kg oral gavage daily; αPD-L1 200 μg i.p. every second day; compared to control group
Experimental: FIGS. 1A, 1B, and 1C: 5×10^5 MC38 colon adenocarcinoma cells were injected s.c. in C57BL/6 WT mice and tumors were allowed to grow for 11 days before treatments were initiated. Control mice (n=13) received daily an oral gavage of H2O (100 μl) and every second day 200 μl of PBS i.p. The L-arginine group received daily an oral gavage of L-arginine (2 g/kg body weight in 100 μl) (n=19). The PD-L1 group received 200 μg of αPD-L1 mAb i.p. every second day (n=16). The Combo group received L-arginine (oral) and αPD-L1 (i.p.) (n=17). FIG. 1A depicts in vivo MC38 tumor growth (number of mice are indicated in the graph). Values represent mean tumor volume +/− SEM. FIG. 1C: Survival curves of different groups of mice. P values were determined by log-rank comparisons between the curves. FIG. 1B provide tumor growth curves of individual mice. P values were determined by two way ANOVA. *P<0.05, **P<0.01, ***P<0.001, ****P<0.0001, throughout.
MC38 murine colon adenocarcinoma cells were cultured in RPMI 1640 plus 10% heat-inactivated FCS, 1 mM Na-Pyruvate and 50 μM β-mercaptoethanol. Female C57BL/6 mice between the ages of 5 to 10 weeks were implanted with the MC38 cells. […] The size of tumors was measured in a blinded fashion using calipers. […] Tumors were collected, digested and tumor-infiltrating lymphocytes (TILs) were analyzed by flow cytometry.

SMILES: N=C(N)NCCC[C@H](N)C(=O)O [L-arginine]
- MC38 tumor growth: slightly reduced
